Earlier results as cited in patent publication USRE39151E1, “Process for the preparation and purification of thiol-containing maytansinoids” (Immunogen, Inc., priority 2000, dated 2006).

Tests used:
[1] = system: human acute lymphoblastic leukemia line C.E.M.
[2] = system: LY5178 murine leukemic cell suspensions; conditions: in vitro, LY5178 cell suspension
[3] = system: human nasopharyngeal carcinoma cells
[4] = system: P388 murine leukemic cell suspensions; conditions: in vitro, P388 cell suspension
[5] = versus methotrexate, daunorubicin, and vincristine
[6] = system: P388 lymphocytic leukemia system; conditions: in vivo
[7] = system: L1210 mouse leukemia system
[8] = system: B-16 melanocarcinoma system
[9] = patients
tubulin = conditions: sea urchin eggs and clam eggs
L1210 cells = L1210 cells treated in vivo; untreated control mitotic index 3.2 to 5.8%
[10] = system: Lewis lung carcinoma system
[11] = system: L1210 murine leukemic cell suspensions; conditions: in vitro, L1210 cell suspension

SMILES: COc1cc2cc(c1Cl)N(C)C(=O)C[C@H](OC(=O)[C@H](C)N(C)C(C)=O)[C@]1(C)O[C@H]1[C@H](C)[C@@H]1C[C@@](O)(NC(=O)O1)[C@H](OC)/C=C/C=C(\C)C2 [maytansine]
- inhibitory concentration [1]: ≥ 10^−7 microgram/ml
- inhibitory dose [2]: 10^−3 to 10^−1 microgram/mL
- inhibition of in vitro growth [3]: active inhibitor
- inhibitory dose [4]: 10^−3 to 10^−1 microgram/mL
- fold more cytotoxic than conventional cancer chemotherapeutic agents [5]: 100 to 1000 fold
- dosage range over which tumor growth was inhibited [6]: 50- to 100 fold
- inhibitory activity in vivo [7]: significant inhibitory activity
- inhibitory activity in vivo [8]: significant inhibitory activity
- adverse effects in clinical trials [9]: associated with peripheral neuropathy that might be cumulative
- outcome of clinical trials [9]: not favorable due to a number of side effects
- effect on mitosis / microtubule formation (tubulin): inhibits mitosis by interfering with the formation of microtubules
- cells accumulating in mitosis (L1210 cells): 67%
- inhibitory activity in vivo [10]: significant inhibitory activity
- inhibitory dose [11]: 10^−3 to 10^−1 microgram/mL
